PMC5607274, “An iterative compound screening contest method for identifying target protein inhibitors using the tyrosine-protein kinase Yes” (Scientific Reports, 2017)

Target: T1, human recombinant Yes [a.a. 2–543 (end)] (Homo sapiens, UniProt P07947)
T1 construct: human recombinant Yes [a.a; 2–543 (end)]; purchased BPS Bioscience 40488
Assay: ADP-Glo kinase assay, inhibition rates of Yes phosphorylation activity (first and second screening)
Assay type: biochemical
Details: 10 μmol L−1 compound; for First screening IR (inhibition rate): mean of n = 4 wells; for Second screening IR (inhibition rate): dissolved from fresh powder, n = 4
Procedure, shortened: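 Hits from a first pass were rescreened after re-dissolution from fresh powder. The first pass reported the mean inhibition rate of quadruplicate wells per compound. Activity was that of recombinant human Yes [a.a. 2–543] kinase, read out with the ADP-Glo ADP-detection method.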

T1 sequence (P07947 2-543): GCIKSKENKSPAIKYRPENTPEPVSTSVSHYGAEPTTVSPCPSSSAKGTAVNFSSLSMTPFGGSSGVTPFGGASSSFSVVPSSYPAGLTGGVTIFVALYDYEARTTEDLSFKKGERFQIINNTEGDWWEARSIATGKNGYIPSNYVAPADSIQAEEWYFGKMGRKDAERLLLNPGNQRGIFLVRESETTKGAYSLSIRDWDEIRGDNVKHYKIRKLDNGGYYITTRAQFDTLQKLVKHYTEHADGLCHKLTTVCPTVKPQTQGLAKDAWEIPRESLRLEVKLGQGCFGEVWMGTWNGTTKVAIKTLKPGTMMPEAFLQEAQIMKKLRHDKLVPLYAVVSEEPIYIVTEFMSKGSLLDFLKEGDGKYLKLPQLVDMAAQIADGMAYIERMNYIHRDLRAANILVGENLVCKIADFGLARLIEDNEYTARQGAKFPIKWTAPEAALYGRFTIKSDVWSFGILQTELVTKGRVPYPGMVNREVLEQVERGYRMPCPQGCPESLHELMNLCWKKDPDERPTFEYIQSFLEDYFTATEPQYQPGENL

SMILES	First screening IR (inhibition rate)	Second screening IR (inhibition rate)
CC(C)c1nn(C)c(Cl)c1CNCc1ccc(N2CCOCC2)c(F)c1 [Compound Z635707390]	-12%	–
CCCn1c(NC(=O)c2ccc3c(c2)S(=O)(=O)N(C(C)C)C3=O)nc2ccccc21 [Compound Z641940000]	10%	–
FC(F)(F)c1ccnc(Nc2ccc(N3CCCCCC3)cc2)n1 [Compound Z642699568]	-21%	–
COc1cc(Br)c(S(=O)(=O)N(C)C(=O)C2CC2)cc1OC [Compound Z643690740]	0%	–
CC(Nc1ccc(C#N)cn1)c1ccc(OCc2cccnc2)cc1 (centres unmarked) [Compound Z644822950]	2%	–
Cc1occc1C(=O)Nc1cc(Nc2nccc(C(F)(F)F)n2)ccc1F [Compound Z645121524]	14%	–
COCCOc1ccc(CNc2ncnc3ccccc23)cn1 [Compound Z645525338]	-2%	–
Cn1ncc2c(NCCOc3ccc4c(c3)OCO4)ncnc21 [Compound Z645593692]	-38%	–
CC(C)(C(=O)N1CCN(C(=O)C2CCC(=O)NC2)CC1)c1ccccc1 (centres unmarked) [Compound Z645877938]	-20%	–
Cc1cccc(C)c1OC1CCN(c2ncnc3c2cnn3C)CC1 [Compound Z646031500]	8%	–
O=C1OCCN1Cc1ccc(Nc2nccc(C(F)(F)F)n2)cc1 [Compound Z646432252]	11%	–
Cn1cc(Nc2nccc(C(F)(F)F)n2)cn1 [Compound Z646439314]	5%	–
CC(NC(=O)Cn1nc(-c2ccccc2)ccc1=O)c1nc2ccccc2[nH]1 (centres unmarked) [Compound Z647256318]	5%	–
O=C(Nc1c[nH]ccc1=O)c1ccc2c(c1)CC(c1ccccc1)OC2=O (centres unmarked) [Compound Z649184702]	-7%	–
O=C(CCNC(=O)c1cc2cc(F)ccc2[nH]1)Nc1ccccn1 [Compound Z649200126]	-10%	–
CC(C)c1ccc2cc(C(=O)NCCN3CCS(=O)(=O)CC3)[nH]c2c1 [Compound Z649805708]	-31%	–
Cc1cnc(C(=O)Nc2ccc3nc(-c4ccc(F)cc4)[nH]c3c2)cn1 [Compound Z651750688]	-2%	–
CS(=O)(=O)c1ccc(F)c(S(C)(=O)=O)c1 [Compound Z652718652]	31%	–
O=C(CCc1cnn(-c2ccccc2)c1)Nc1n[nH]c(-c2ccccn2)n1 [Compound Z653343234]	-14%	–
Cc1ccc2[nH]c(C)c(CC(=O)Nc3n[nH]c(-c4ccccn4)n3)c2c1 [Compound Z653347886]	-3%	–
CS(=O)(=O)c1ccc(N2CCC2)c(S(C)(=O)=O)c1 [Compound Z666133744]	8%	–
CCN(CC(C)C)c1ccc(S(C)(=O)=O)cc1S(C)(=O)=O [Compound Z666139280]	7%	–

SMILES	First screening IR (inhibition rate)	Second screening IR (inhibition rate)
CN(CC1CC1)c1ccc(S(C)(=O)=O)cc1S(C)(=O)=O [Compound Z666145136]	52%	–
COc1cc(CNC(=O)c2ccc[nH]c2=O)ccc1OCC(N)=O [Compound Z666252570]	1%	–
Cc1cccn2cc(-c3ccc(NC(=O)c4ccc(=O)[nH]c4)cc3)nc12 [Compound Z666279820]	-9%	–
Cc1nn(-c2ccc(Br)cc2)c(C)c1C(=O)Nc1ncn[nH]1 [Compound Z727167436]	-2%	–
c1ccc2nc(Nc3cn[nH]c3)cnc2c1 [Compound Z729018028]	45%	-12%
CNc1ccc(Nc2nccc(C(F)(F)F)n2)cn1 [Compound Z729056288]	-20%	–
NC(=O)c1cnc(NCc2ccnc(N3CCCCC3)c2)c(Cl)c1 [Compound Z729056808]	2%	–
CCCNC(=O)CN(CCC)C(=O)c1cc(-c2ccccc2)nc2c1cnn2CC [Compound Z729700802]	0%	–
O=C1CC(C(=O)Nc2cc(CC3CCCCC3)[nH]n2)c2ccc(F)cc2N1 (centres unmarked) [Compound Z729744666]	22%	–
COCCCn1c(=O)c2ccccc2n2c(=S)n(CN(Cc3ccc(N(C)C)cc3)C(C)C)nc12 [Compound Z729842360]	-9%	–
O=[N+]([O-])c1ccc(Nc2cccc(N3CCCC3)c2)c([N+](=O)[O-])c1 [Compound Z729847414]	20%	–
O=C(CCCNC(=O)c1ccc(-c2ccccc2F)o1)Nc1ccc(Cl)cc1 [Compound Z730571712]	2%	–
C#CCN(C1CCS(=O)(=O)C1)S(=O)(=O)c1ccccc1F (centres unmarked) [Compound Z734126534]	-10%	–
Cn1c2ccccc2n2c3ccccc3c(=O)c(C#N)c12 [Compound Z734296158]	-2%	–
Cn1c2ccccc2n2c3cccc(F)c3c(=O)c(C#N)c12 [Compound Z734467112]	-1%	–
CC(C)(C)n1nc(C(=O)Nc2cccc(C3SCCCS3)c2)cc1C1CC1 [Compound Z735448522]	2%	–
Brc1ccc2nc(CNCc3cnc(-c4ccccc4)nc3)cn2c1 [Compound Z736057568]	4%	–
CCS(=O)(=O)c1ccc(S(=O)(=O)N2CCCSCC2)cc1 [Compound Z736543988]	32%	–
CCN(C(C)C)S(=O)(=O)c1ccc(S(C)(=O)=O)cc1 [Compound Z736710192]	-4%	–
C/C=C/C=C/C(=O)NCc1cccc(C(=O)NCc2ccco2)c1 [Compound Z737550454]	0%	–
CN(C(=O)c1ccc(NC(=O)C2CCCO2)cc1Cl)C1CCCCC1 (centres unmarked) [Compound Z738379554]	3%	–
CN(C(=O)c1ccc(C2SCCCS2)cc1)c1ccc(C(N)=O)cc1 [Compound Z740420934]	0%	–

SMILES	First screening IR (inhibition rate)	Second screening IR (inhibition rate)
Cn1c(C(=O)Nc2ccc(NC(=O)c3ccco3)c(Cl)c2)cc2ccccc21 [Compound Z751335838]	55%	–
Cc1nc(NCCn2cccn2)c2cnn(-c3ccccc3)c2n1 [Compound Z751573116]	14%	–
O=C(Nc1cc(Cl)cc(Br)c1OC(F)F)C(=O)N1CCCSCC1 [Compound Z754942410]	13%	–
Cn1ccnc1C(O)(CC(=O)Nc1ccc(Oc2ncccn2)cc1)C(F)(F)F (centres unmarked) [Compound Z757638538]	-7%	–
O=C(Nc1ccc2nc(-c3ccco3)[nH]c2c1)c1ccc(Cl)nc1 [Compound Z757780044]	51%	–
Cn1c(C(=O)Oc2ccc(NC(=O)c3ccco3)cc2)cc2ccccc21 [Compound Z762214972]	-1%	–
O=C1CCc2cc(OC(=O)c3cn(-c4ccccc4)nc3-c3cccs3)ccc2N1 [Compound Z764721614]	63%	-5%
NC(=O)Nc1ccc(-c2csc(CCc3ccccc3)n2)cc1 [Compound Z785638578]	0%	–
Cc1noc(C)c1COC(=O)c1c[nH]cc1-c1ccc(Cl)s1 [Compound Z796939908]	0%	–
NCCN1C(=O)C2C3C=CC(C3)C2C1=O (centres unmarked) [Compound Z803067872]	7%	–
CCOC(=O)N(C)c1ccc(Nc2nccc(C(F)(F)F)n2)cc1 [Compound Z805455424]	-19%	–
CCS(=O)(=O)N1CCN(S(=O)(=O)C2CCS(=O)(=O)C2)CC1 (centres unmarked) [Compound Z805634984]	2%	–
CN(c1ccc(I)cc1)S(=O)(=O)c1cn[nH]c1 [Compound Z805651486]	-1%	–
CS(=O)(=O)CCS(=O)(=O)c1ccc(N)cc1 [Compound Z808591212]	-1%	–
O=C(c1ccc(OCC2CC2)cc1)N1CCC(c2nnc3n2CCC3)CC1 [Compound Z809056560]	2%	–
O=C1Cc2cc(S(=O)(=O)N3CCCc4cccc(OC(F)F)c43)ccc2N1 [Compound Z815677014]	-4%	–
CCCN1CCN(c2ccc(Nc3ccc4nnnn4n3)cc2Cl)CC1 [Compound Z815791244]	-24%	–
Cc1cc(NCC(O)COc2ccc(F)cc2)nc2ccccc12 (centres unmarked) [Compound Z815806580]	-15%	–
Cc1nc(NCC2CCN(c3ccc(F)cc3)C2)c2cnn(C)c2n1 (centres unmarked) [Compound Z815820560]	-4%	–
O=C(Nc1cnc2ccccc2c1)c1ccc(-n2ccc(C(F)(F)F)n2)cc1 [Compound Z815840280]	9%	–
NC(=O)c1ccc(COc2ccc(I)cc2)c(F)c1 [Compound Z816021628]	-2%	–
Cn1ncc2c(N3CCCC3CO)ncnc21 (centres unmarked) [Compound Z817034034]	3%	–
